Data set [1] has as its target Receptor-type tyrosine-protein kinase FLT3 (Homo sapiens, UniProt P36888, ITD). The data set is described as follows: Inhibition of recombinant FLT3 ITD mutant (unknown origin) by RBC kinase assay.
Data set [2] addresses Receptor-type tyrosine-protein kinase FLT3 (Homo sapiens, UniProt P36888, D835Y). The data set is described as follows: Inhibition of recombinant FLT3 D835Y mutant (unknown origin) by TR-FRET assay. On the technique in general: In TR-FRET formats the signal depends on donor and acceptor labels being close together.
Data set [3] has as its target T1, Receptor-type tyrosine-protein kinase FLT3 (Homo sapiens, UniProt P36888).
T1 sequence (P36888 whole entry): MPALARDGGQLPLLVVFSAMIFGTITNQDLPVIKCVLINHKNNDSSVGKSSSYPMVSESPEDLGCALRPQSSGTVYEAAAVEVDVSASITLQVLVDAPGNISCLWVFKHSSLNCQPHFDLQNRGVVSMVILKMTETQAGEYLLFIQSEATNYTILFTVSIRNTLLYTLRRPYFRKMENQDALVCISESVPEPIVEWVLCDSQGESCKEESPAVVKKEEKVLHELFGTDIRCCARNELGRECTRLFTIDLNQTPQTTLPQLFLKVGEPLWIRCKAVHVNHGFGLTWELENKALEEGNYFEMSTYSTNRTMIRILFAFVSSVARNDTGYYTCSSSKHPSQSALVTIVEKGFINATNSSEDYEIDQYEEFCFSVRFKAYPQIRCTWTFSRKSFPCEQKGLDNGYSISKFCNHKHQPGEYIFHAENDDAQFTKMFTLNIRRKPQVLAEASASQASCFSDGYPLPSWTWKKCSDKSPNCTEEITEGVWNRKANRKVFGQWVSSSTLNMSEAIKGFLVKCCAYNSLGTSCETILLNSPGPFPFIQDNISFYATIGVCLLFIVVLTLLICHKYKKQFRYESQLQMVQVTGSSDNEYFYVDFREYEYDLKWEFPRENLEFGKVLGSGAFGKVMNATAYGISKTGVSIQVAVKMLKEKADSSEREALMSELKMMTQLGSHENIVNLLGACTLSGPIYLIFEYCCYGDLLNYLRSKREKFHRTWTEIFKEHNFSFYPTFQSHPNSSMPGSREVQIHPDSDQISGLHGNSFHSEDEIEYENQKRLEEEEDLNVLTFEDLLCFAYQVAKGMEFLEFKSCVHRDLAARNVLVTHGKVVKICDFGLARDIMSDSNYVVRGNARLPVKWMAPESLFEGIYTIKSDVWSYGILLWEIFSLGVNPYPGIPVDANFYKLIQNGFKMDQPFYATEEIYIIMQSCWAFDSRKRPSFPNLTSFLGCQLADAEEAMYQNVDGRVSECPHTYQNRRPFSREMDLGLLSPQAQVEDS
The data set is described as follows: Inhibition of recombinant FLT3 (unknown origin) by TR-FRET assay.

Data set [4] relates to MV4-11. Kind of data set: Antiproliferative activity against human MV4-11 cells after 72 hrs by luminescent cell viability assay. The following applies: MV4-11, 72 h. The class given is functional, cell-based.
A short description of data set [5]: Antiproliferative activity against human THP1 cells after 72 hrs by luminescent cell viability assay. Format: functional, cell-based. As to conditions: THP-1, 72 h.
Data set [6] concerns MV4-11. Kind of data set: Antiproliferative activity against human MV4-11 cells assessed as growth inhibition at 5 uM after 72 hrs by luminescent cell viability assay. The class given is functional. The following applies: MV4-11, 72 h, read-out: GI.
Data set [7] can be described thus: Antiproliferative activity against human THP1 cells assessed as growth inhibition at 5 uM after 72 hrs by luminescent cell viability assay. The class given is functional. As to conditions: THP-1, 72 h, read-out: GI.
The target of data set [8] is MAP kinase-interacting serine/threonine-protein kinase 1 (Homo sapiens) (UniProt Q9BUB5). Kind of data set: Inhibition of MNK1 (unknown origin) at 10 uM.
Data set [9] concerns the target MAP kinase-interacting serine/threonine-protein kinase 2 (Homo sapiens) (UniProt Q9HBH9). Kind of data set: Inhibition of MNK2 (unknown origin) at 10 uM.
The nature of data set [10]: Antiproliferative activity against human HL60 cells assessed as growth inhibition at 5 uM after 72 hrs by luminescent cell viability assay. Format: functional. The following applies: HL-60, 72 h, read-out: GI.
The test system of the next data set is K562. The data set is described as follows: Antiproliferative activity against human K562 cells assessed as growth inhibition at 5 uM after 72 hrs by luminescent cell viability assay. Format: functional. The following applies: K562, 72 h, read-out: GI.
A short description of data set [11]: Antiproliferative activity against human HEK293T cells assessed as growth inhibition at 5 uM after 72 hrs by luminescent cell viability assay. Format: cell-based, HEK-293T. As to conditions: read-out: GI.

Our source for the IC50, inhibition of growth and inhibition values is ChEMBL document CHEMBL3352474, “Design, synthesis and biological evaluation of FLT3 covalent inhibitors with a resorcylic acid core” (Bioorg Med Chem, 2014).

Chain of MAP kinase-interacting serine/threonine-protein kinase 1 (Homo sapiens) (Q9BUB5 whole entry, looked up): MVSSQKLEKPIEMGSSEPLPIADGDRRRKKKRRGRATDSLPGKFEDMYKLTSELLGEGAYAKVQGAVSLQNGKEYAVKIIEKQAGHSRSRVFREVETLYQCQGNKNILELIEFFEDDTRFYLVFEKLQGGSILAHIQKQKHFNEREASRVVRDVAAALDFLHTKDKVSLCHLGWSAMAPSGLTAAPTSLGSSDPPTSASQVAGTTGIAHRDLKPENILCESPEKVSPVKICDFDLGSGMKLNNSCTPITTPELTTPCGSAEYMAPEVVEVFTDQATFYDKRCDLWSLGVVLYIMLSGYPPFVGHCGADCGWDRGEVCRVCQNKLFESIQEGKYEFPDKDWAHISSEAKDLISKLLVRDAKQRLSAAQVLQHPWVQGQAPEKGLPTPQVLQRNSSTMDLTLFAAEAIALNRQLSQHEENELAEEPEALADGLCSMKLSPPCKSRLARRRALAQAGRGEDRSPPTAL
Chain of MAP kinase-interacting serine/threonine-protein kinase 2 (Homo sapiens) (Q9HBH9 whole entry, looked up): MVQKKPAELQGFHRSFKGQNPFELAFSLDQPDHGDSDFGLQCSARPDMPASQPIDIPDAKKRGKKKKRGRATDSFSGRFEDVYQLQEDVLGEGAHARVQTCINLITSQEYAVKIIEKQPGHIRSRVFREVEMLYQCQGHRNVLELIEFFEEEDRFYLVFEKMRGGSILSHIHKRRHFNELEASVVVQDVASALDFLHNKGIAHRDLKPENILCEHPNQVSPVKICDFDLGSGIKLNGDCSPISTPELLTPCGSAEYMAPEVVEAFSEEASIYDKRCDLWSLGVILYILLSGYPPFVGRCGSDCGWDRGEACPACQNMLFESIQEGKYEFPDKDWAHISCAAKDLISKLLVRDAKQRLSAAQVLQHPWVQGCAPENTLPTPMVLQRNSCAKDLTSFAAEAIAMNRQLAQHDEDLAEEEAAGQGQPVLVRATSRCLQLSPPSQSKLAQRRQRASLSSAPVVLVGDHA

On to `C=CC(=O)NC/C=C/c1cc(OC)cc(O)c1C(=O)OC(C)C`, for which the IC50 in [1] is not below 30 µM; in data set [2], not below 30 µM; in data set [3], not below 30 µM; with MV4-11 [4] it was more than 10 µM.
Regarding `C=CC(=O)NC/C=C/c1cc(OCCCN2CCOCC2)cc(O)c1C(=O)OC(C)C`, the IC50 in data set [5] was 20.7 µM; in data set [1], 0.5 µM; in data set [2], 2.81 µM; in [3] it was 9.61 µM; with MV4-11 [4], 3.74 µM. For the same molecule, the inhibition of growth at 5 µM came out at 73.9% with MV4-11 [6], 9.1% in [7], 8.1% in [10] and 23% in the data set with K562. For the same molecule, the inhibition in data set [8] was 8%; in data set [9], 6.5%. For the same molecule, the inhibition at 72 h, 5 µM in [11] was 26.5%.
As to `COc1cc(O)c(C(=O)OC(C)C)c(CCCN2C(=O)C=CC2=O)c1`, the IC50 in data set [5] amounted to 6.74 µM; in [1], 13.2 µM; in data set [2], 3.03 µM; in data set [3], 0.43 µM; in the data set on MV4-11 [4], 1.57 µM. Moreover, the inhibition of growth at 5 µM with MV4-11 [6] was determined as 99.8%; in [7], 98.8%; in data set [10], 67.9%; in the data set on K562, 98.9%. The results for the inhibition in [8] and in data set [9] were 6.2% and 2.4%, respectively. In data set [11], the inhibition at 72 h, 5 µM amounted to 13.4%.
With `COc1cc(O)c(C(=O)OCc2ccc(Br)cc2)c(/C=C/CN2C(=O)C=CC2=O)c1`, the IC50 was 7.97 µM in data set [5]; more than 30 µM in data set [1]; 1.74 µM in [2]; 1.9 µM in [3]; 1.01 µM in the data set with MV4-11 [4]. Besides, the inhibition of growth at 5 µM in the data set on MV4-11 [6] stood at 97.9%; in data set [7], 0%; in [10], 36.7%; with K562, 28.7%. The inhibition in [8] turned out to be 4.3%; in [9] it was 0%. In addition, the inhibition at 72 h, 5 µM in [11] amounted to 20.1%.
As to `COc1cc(O)c(C(=O)OCc2ccc(F)cc2)c(/C=C/CN2C(=O)C=CC2=O)c1`, the IC50 in data set [5] is 7.34 µM; in [1] it was more than 30 µM; in [2], 0.95 µM; in data set [3], 1.64 µM; with MV4-11 [4] it was 1.46 µM. Besides, the inhibition of growth at 5 µM in the data set on MV4-11 [6] came out at 99.7%; in data set [7], 0%; in data set [10], 82.2%; in the data set on K562 it was 96.4%. In addition, the inhibition in [8] was determined as 4.1%; in data set [9], 0%. Also, in [11], the inhibition at 72 h, 5 µM was found to be 37.9%.
Turning to `CCN(CC)C/C=C/C(=O)NC/C=C/c1cc(OC)cc(O)c1C(=O)O[C@@H](C)C(C)C`, the IC50 in [1] is not below 30 µM; in [2], not below 30 µM; in [3], not below 30 µM; with MV4-11 [4], more than 10 µM.
As to `C=CS(=O)(=O)NC/C=C/c1cc(OC)cc(O)c1C(=O)OCc1ccc(F)cc1`, the IC50 in data set [5] is 6.55 µM; in data set [1], not below 30 µM; in data set [2], not below 30 µM; in [3], not below 30 µM; with MV4-11 [4] it was 5.14 µM. The inhibition of growth at 5 µM in the data set on MV4-11 [6] was determined as 70.5%; in data set [7], 41.7%; in [10], 10.9%; in the data set on K562 it was 52%. Moreover, the inhibition at 72 h, 5 µM in data set [11] was 0%.
Consider `C=CS(=O)(=O)NC/C=C/c1cc(OC)cc(O)c1C(=O)OCC1CCCCC1`, for which the IC50 was 7.88 µM in data set [5]; not below 30 µM in data set [1]; not below 30 µM in [2]; not below 30 µM in data set [3]; 5.86 µM with MV4-11 [4]. Also, the inhibition of growth at 5 µM came to 56.4% in the data set with MV4-11 [6], 26.5% in data set [7], 7.5% in [10] and 27.4% in the data set with K562. The inhibition at 72 h, 5 µM in [11] came to 31.2%.
As to `CCN(CC)C/C=C/C(=O)NC/C=C/c1cc(OC)cc(O)c1C(=O)OC(C)C`, the values for the IC50 (in data set [2]; in data set [3]; in the data set with MV4-11 [4]) were 15.9 µM, more than 30 µM and more than 10 µM, respectively. For the same molecule, the inhibition in [8] stood at 12.5%; in data set [9], 5.2%.
With `C=CS(=O)(=O)NC/C=C/c1cc(OC)cc(O)c1C(=O)OCC(C)c1ccccc1` (stereo unspecified), the IC50 in data set [5] was more than 10 µM; in [1] it was not below 30 µM; in [2], not below 30 µM; in [3], not below 30 µM; in the data set with MV4-11 [4] it was 7.73 µM. Moreover, the inhibition of growth at 5 µM in the data set with MV4-11 [6] was 9.6%; in data set [7], 5.6%; in [10] it was 9.5%; in the data set with K562, 16.7%. Also, the inhibition at 72 h, 5 µM in data set [11] turned out to be 22.5%.
`C=CS(=O)(=O)NC/C=C/c1cc(OC)cc(O)c1C(=O)OCc1ccc(Br)cc1`: the IC50 in data set [5] was 6.24 µM; in data set [1] it was not below 30 µM; in data set [2] it was not below 30 µM; in data set [3], not below 30 µM; in the data set on MV4-11 [4] it was 6.06 µM. Besides, the inhibition of growth at 5 µM in the data set on MV4-11 [6] was 61%; in data set [7] it was 31.2%; in data set [10] it was 8.1%; in the data set with K562 it was 38.4%. In data set [11], the inhibition at 72 h, 5 µM stood at 0%.
Take `COc1cc(O)c2c(c1)CCC[C@H](O)[C@H](O)C(=O)/C=C\C[C@H](C)OC2=O`: the IC50 in data set [5] is 1.18 µM; in data set [1], 0.036 µM; in [2] it was 0.011 µM; in data set [3], 0.062 µM; in the data set with MV4-11 [4] it was 0.01 µM. Besides, the inhibition of growth at 5 µM with MV4-11 [6] stood at 99.7%; in data set [7], 81.5%; in data set [10], 86%; in the data set with K562 it was 69.7%. Also, the inhibition at 72 h, 5 µM in [11] was determined as 74.6%.
As to `C/C=C/C(=O)NC/C=C/c1cc(OC)cc(O)c1C(=O)OC(C)C`, the IC50 in data set [1] is not below 30 µM; in [2] it was not below 30 µM; in [3] it was not below 30 µM; with MV4-11 [4], more than 10 µM.
Take `COc1cc(O)c(C(=O)OC(C)C)c(/C=C/CNC(C)=O)c1`: the IC50 in data set [2] was 14.2 µM; in [3] it was more than 50 µM; in the data set on MV4-11 [4] it was more than 10 µM.
Take `C/C=C/C(=O)NC/C=C/c1cc(OCCCN2CCOCC2)cc(O)c1C(=O)OC(C)C`: the figures for the IC50 (in data set [2]; in [3]; in the data set on MV4-11 [4]) were 10.5 µM, 16.2 µM and more than 10 µM, respectively. The figures for the inhibition in data set [8] and in data set [9] were 5.8% and 12.9%, respectively.
On to `C=CC(=O)NC/C=C/c1cc(OC)cc(O)c1C(=O)O[C@@H](C)C(C)C`, for which the concentration for half-maximal inhibition (IC50) in data set [1] was not below 30 µM; in data set [2], not below 30 µM; in data set [3], not below 30 µM; with MV4-11 [4], more than 10 µM.
`C=CS(=O)(=O)NCCCc1cc(OCCN2CCOCC2)cc(O)c1C(=O)OC(C)C`: the IC50 in data set [5] was more than 10 µM; in [1], 4.23 µM; in [2], 18.6 µM; in data set [3], more than 30 µM; with MV4-11 [4], 7.61 µM. Also, the inhibition of growth at 5 µM is 20.4% with MV4-11 [6], 0% in data set [7], 2% in data set [10] and 13.8% in the data set on K562. Also, the inhibition at 72 h, 5 µM in [11] came out at 28.4%.
On to `C/C=C/C(=O)NC/C=C/c1cc(OCCc2ccc(F)cc2)cc(O)c1C(=O)OC(C)C`, for which the IC50 is not below 30 µM in data set [1], not below 30 µM in data set [2], not below 30 µM in [3] and more than 10 µM with MV4-11 [4].

The IC50 is the concentration needed to halve the response being measured.
